Results: patent US12144814B2, “Compositions containing paraxanthine and beta-hydroxybutyrate or precursor for increasing neurological and physiological performance” (priority 2023, dated 2024)

Assays:
mice [1] = experiment: Forced Swim Test on mice; assay type: in vivo
mice [2] = experiment: Cook's Pole Climbing Test on mice; assay type: in vivo
healthy young adults [3] = experiment: Go/No Go Attention and Inhibitory Control Test; assay type: in vivo; conditions: 200 mg paraxanthine; 5 g BHB; 200 mg paraxanthine and 5 g BHB; baseline and 1-6 hours after supplementation; FIG. 4
Source text: Attention and inhibitory control can be measured using a Go/No Go Test, which is used to measure a participant's capacity for sustained attention and response control. The Go/No Go Test is routinely used in the field, and will be familiar to those of skill in the art. In the Go/No Go Test, participants watch a 2×2 array of squares, and then there is a successive presentation of letters (e.g., either P or R) and the participant responds to a target letter by pressing the corresponding button on a keyboard. The single letter (P or R) is presented in one of the 4 squares for 500 milliseconds, with 1500 milliseconds between subsequent stimuli. For the P-Go condition, participants are asked to press the P key in response to the letter P, and abstain from responding to the letter R. For the R-reversal condition, the participants are asked to respond to the letter R, and abstain when seeing the letter P. Mean response time, as well as percentage of correct answers are recorded. When running each such tests, subjects are given either paraxanthine+BHB, paraxanthine alone, BHB alone, or a placebo. The dosage amounts are 200 mg paraxanthine and 5 g of BHB, 200 mg of paraxanthine alone, 5 g of BHB alone, or a placebo. The testing is conducted under double blind, placebo controlled conditions. […]

healthy young adults [4] = experiment: Vigilance Task Test; assay type: in vivo; conditions: 200 mg paraxanthine; 5 g BHB; 200 mg paraxanthine and 5 g BHB; baseline and 1-6 hours after supplementation; FIG. 6
Source text: The Vigilance Task Test is another test routinely used in the field, and is used to evaluate a participants ability to sustain attention. The Vigilance Task Test is a sustained attention, reaction timed task test that measures the speed with which participants respond to a visual stimulus. The subjects respond to visual stimuli (e.g., a red dot) by pressing a key as soon as it appears on the computer screen. The light turns on at random, e.g., roughly every couple of seconds or so during the test. The speed of response is measured. Due to the random nature of the test, there is no learning effect. Mean response time is recorded. When running each such tests, subjects are given either paraxanthine+BHB, paraxanthine alone, BHB alone, or a placebo. The dosage amounts are 200 mg paraxanthine and 5 g of BHB, 200 mg of paraxanthine alone, 5 g of BHB alone, or a placebo. The testing is conducted under double blind, placebo controlled conditions. The subjects include 13 healthy young adults (10 male, 3 female), aged 24±5 years; height 170.0±11.8 cm; weight 72.9±19.3 kg.

[5] = Age-related cognitive decline study; assay type: in vivo; conditions: BHB 5 g
[6] = Clinical Stroop Test study; assay type: in vivo; conditions: paraxanthine 200 mg; BHB 5 g; paraxanthine 200 mg with BHB 5 g; 6-week period; FIGS. 15A-15C
Source text: The Stroop effect refers to the delay in reaction time between congruent and incongruent stimuli. […] When paired with paraxanthine, the combination provides a synergistic improvement in mental acuity.

[7] = Clinical Resting Energy Expenditure study; assay type: in vivo; conditions: paraxanthine 100 mg or 300 mg; BHB 5 g; paraxanthine 100 mg or 300 mg with BHB 5 g; 180-day period
Protocol: FIGS. 16A-16B show expected results of a clinical Resting Energy Expenditure study, where participants are supplemented with paraxanthine alone (100 mg or 300 mg), BHB alone (5 g), or paraxanthine (100 mg or 300 mg) in combination with BHB (5 g) over a 180-day period. […] Because of the presence of the BHB ketone body component, such increased metabolic rate is also more likely to occur within the context of ketogenic state, where fat is principally used as the caloric energy source for the increased resting metabolic rate.

[8] = cited from earlier work
[9] = cited from earlier work; for Total plasma clearance: in vivo; for half-life: elimination half-life, FIG. 3
dopaminergic neurons = conditions: cited from earlier work
[10] = elevated doses; cited from earlier work
[11] = metabolite of caffeine, FIG. 2; cited from earlier work

C[N+](C)(C)CCOP(=O)([O-])OC[C@H](O)CO [Alpha-GPC]
Duration of Immobility (mice [1]; Alpha-GPC 200 mg): 9.38 min
Duration of mobility/active swimming (mice [1]; Alpha-GPC 200 mg): 20.63 min
No. of Climbing (mice [2]; Alpha-GPC 200 mg): 5.5

CC(O)CC(=O)O (stereo not drawn) [BHB, beta-hydroxybutyrate]
Go/No Go Test correct responses (healthy young adults [3]): decrease in correct answers over time
Vigilance Task Test average response time (healthy young adults [4]): significantly slower reaction times
Acetylcholine [5]: 58 U/mL
BDNF [5]: 775 pg/mL
Catalase [5]: 28 U/mL
Dopamine [5]: 475 ng/L
Escape Latency [5]: 50 s
Glutathione [5]: 22 µg/mL
Duration of Immobility (mice [1]; BHB 5 g): 9.5 min
Duration of mobility/active swimming (mice [1]; BHB 5 g): 20 min
No. of Climbing (mice [2]; BHB 5 g): 6
Stroop test number of correct answers [6]: little if any benefit
Stroop test reaction speed [6]: little if any benefit
resting energy expenditure [7]: only a minor benefit

CCNC(=O)CC[C@H](N)C(=O)O [L-Theanine, L-theanine]
Duration of Immobility (mice [1]; L-Theanine 50 mg): 8.74 min
Duration of mobility/active swimming (mice [1]; L-Theanine 50 mg): 21.26 min
No. of Climbing (mice [2]; L-Theanine 50 mg): 4.38

NCCS(=O)(=O)O [Taurine, taurine]
Duration of Immobility (mice [1]; Taurine 500 mg): 9.61 min
Duration of mobility/active swimming (mice [1]; Taurine 500 mg): 20.39 min
No. of Climbing (mice [2]; Taurine 500 mg): 6.5

CC(O)CC(=O)O (stereo not drawn) [beta-hydroxybutyric acid]
pKa [8]: 4.70

Cn1c(=O)c2c(ncn2C)n(C)c1=O [caffeine]
Total plasma clearance [9]: 2.07 mL/min/kg
protection against neurodegeneration and the loss of synaptic function (dopaminergic neurons): marginal protection

NC(=O)C[S+]([O-])C(c1ccccc1)c1ccccc1 (centres unmarked) [modafinil]
hypothermia and reduced locomotor activity [10]: induce hypothermia and reduced locomotor activity

Cn1cnc2c1c(=O)[nH]c(=O)n2C [theobromine]
half-life [9]: 7.2 h
Total plasma clearance [9]: 1.2 mL/min/kg

Cn1c(=O)c2[nH]cnc2n(C)c1=O [theophylline]
half-life [9]: 6.2 h
Total plasma clearance [9]: 0.93 mL/min/kg
share of the methylxanthine metabolic by-products [11]: 4%
